Source: the kinase profiling compilation of Christmann-Franck et al. (2016)
Blank lines part the entries; values can stand above or below the molecule they belong to.

Columns and labels:
Assay in all cases: radiometric filter-binding kinase assay, Kinaseprofiler
[1] = test system: TEK (human), Q02763 [Q939H/Q940H]; settings: ATP 200 µM
[2] = test system: AKT1 (human), P31749 [S478G]; settings: ATP 155 µM
[3] = test system: GSK3A (human), P49840 [S449A]; settings: ATP 10 µM
[4] = test system: SGK2 (human), Q9HBY8 [S416D]; settings: ATP 15 µM
Sequence of SGK2 (human), Q9HBY8 [S416D] (Q9HBY8 whole entry, looked up, stated change not applied): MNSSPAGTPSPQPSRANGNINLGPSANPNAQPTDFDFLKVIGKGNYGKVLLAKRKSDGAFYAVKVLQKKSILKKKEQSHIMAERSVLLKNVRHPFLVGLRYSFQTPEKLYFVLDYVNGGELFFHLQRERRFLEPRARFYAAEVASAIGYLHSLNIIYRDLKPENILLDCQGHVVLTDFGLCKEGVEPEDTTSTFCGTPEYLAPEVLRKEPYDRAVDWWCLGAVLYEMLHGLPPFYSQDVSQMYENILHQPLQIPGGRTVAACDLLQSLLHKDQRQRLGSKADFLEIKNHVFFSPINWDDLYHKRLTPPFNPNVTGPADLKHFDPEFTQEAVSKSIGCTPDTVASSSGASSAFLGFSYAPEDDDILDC

[5] = test system: TAOK3 (human), Q9H2K8 [N47S]; settings: ATP 15 µM
Sequence of TAOK3 (human), Q9H2K8 [N47S] (Q9H2K8 whole entry, looked up, stated change not applied): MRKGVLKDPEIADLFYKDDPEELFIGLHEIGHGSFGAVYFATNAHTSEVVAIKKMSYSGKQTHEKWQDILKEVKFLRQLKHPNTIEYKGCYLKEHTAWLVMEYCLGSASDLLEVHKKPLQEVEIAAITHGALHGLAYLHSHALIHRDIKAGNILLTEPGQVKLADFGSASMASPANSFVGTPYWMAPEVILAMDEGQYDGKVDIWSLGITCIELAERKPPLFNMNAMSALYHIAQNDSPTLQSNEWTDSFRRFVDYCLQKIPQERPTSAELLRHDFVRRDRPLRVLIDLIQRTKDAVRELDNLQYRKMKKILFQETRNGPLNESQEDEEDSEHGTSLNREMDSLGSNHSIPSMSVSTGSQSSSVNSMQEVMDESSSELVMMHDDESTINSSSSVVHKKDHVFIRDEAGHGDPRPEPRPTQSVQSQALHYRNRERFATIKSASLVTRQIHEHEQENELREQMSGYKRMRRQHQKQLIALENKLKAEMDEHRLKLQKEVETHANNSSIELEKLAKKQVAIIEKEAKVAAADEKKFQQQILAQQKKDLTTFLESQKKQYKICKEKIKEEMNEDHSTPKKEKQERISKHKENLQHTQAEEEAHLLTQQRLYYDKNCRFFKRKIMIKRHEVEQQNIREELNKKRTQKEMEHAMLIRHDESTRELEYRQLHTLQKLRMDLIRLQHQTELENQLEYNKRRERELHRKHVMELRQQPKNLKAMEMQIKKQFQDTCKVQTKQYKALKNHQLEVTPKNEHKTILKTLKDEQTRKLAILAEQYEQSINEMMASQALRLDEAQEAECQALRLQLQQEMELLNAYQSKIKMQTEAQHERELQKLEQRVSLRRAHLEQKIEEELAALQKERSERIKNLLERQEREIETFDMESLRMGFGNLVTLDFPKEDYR

CDK2 CCNA2 (human) = CDK2 CCNA2 (human) (UniProt P24941+P20248); settings: ATP 45 µM
Sequence of CDK2 CCNA2 (human) (P20248 whole entry, looked up, other chains not shown): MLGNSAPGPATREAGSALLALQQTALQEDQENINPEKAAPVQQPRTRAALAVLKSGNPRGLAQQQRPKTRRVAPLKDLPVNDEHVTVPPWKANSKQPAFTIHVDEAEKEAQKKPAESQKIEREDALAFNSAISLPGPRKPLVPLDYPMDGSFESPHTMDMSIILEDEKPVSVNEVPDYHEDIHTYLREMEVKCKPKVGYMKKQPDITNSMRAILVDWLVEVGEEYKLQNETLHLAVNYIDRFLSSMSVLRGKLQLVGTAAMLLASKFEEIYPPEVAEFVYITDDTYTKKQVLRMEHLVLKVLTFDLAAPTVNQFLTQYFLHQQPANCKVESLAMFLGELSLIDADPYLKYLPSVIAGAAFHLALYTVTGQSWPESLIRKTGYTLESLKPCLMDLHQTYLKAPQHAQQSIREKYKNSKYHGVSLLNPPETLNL

CDK2 CCNE1 (human) = CDK2 CCNE1 (human) (UniProt P24941+P24864); settings: ATP 120 µM
CDK3 CCNE1 (human) = CDK3 CCNE1 (human) (UniProt Q00526+P24864); settings: ATP 200 µM
CDK7 CCNH MNAT1 (human) = CDK7 CCNH MNAT1 (human) (UniProt P50613+P51948+P51946); settings: ATP 90 µM
Sequence of CDK7 CCNH MNAT1 (human) (P50613 whole entry, looked up): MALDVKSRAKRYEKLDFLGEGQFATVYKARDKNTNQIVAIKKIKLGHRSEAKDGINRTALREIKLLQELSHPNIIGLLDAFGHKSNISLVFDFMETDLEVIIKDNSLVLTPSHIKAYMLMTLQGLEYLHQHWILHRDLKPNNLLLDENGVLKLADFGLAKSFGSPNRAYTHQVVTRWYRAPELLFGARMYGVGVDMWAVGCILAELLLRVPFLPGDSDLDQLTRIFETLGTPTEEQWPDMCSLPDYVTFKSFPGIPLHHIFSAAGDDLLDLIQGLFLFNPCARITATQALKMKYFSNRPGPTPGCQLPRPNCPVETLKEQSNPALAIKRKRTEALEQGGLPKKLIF
Sequence of CDK7 CCNH MNAT1 (human) (P51946 whole entry, looked up): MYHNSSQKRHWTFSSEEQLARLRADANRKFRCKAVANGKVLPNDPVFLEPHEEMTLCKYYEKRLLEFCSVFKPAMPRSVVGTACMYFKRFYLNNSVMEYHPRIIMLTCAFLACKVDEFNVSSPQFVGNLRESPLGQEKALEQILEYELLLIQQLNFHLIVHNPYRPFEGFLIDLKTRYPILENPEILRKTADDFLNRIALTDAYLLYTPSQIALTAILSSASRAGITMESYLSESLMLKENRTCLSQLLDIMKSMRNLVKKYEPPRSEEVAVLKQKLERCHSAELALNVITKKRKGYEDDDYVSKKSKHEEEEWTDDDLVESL
Sequence of CDK7 CCNH MNAT1 (human) (P51948 whole entry, looked up): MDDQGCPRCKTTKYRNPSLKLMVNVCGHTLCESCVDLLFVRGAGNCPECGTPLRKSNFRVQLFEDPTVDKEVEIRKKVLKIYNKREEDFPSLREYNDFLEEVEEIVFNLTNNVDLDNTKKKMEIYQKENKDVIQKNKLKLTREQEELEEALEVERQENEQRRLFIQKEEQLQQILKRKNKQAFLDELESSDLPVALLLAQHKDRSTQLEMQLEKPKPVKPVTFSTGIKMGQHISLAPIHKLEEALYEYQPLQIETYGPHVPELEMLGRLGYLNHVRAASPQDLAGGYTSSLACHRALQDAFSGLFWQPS

MTOR FKBP1A (human) = MTOR FKBP1A (human) (UniProt P42345+P62942); settings: ATP 45 µM
[6] = target: PRKAA2 PRKAB1 PRKAG1 (human) (UniProt P54619+P54646+Q9Y478); settings: ATP 45 µM
Sequence of PRKAA2 PRKAB1 PRKAG1 (human) (P54619 whole entry, looked up): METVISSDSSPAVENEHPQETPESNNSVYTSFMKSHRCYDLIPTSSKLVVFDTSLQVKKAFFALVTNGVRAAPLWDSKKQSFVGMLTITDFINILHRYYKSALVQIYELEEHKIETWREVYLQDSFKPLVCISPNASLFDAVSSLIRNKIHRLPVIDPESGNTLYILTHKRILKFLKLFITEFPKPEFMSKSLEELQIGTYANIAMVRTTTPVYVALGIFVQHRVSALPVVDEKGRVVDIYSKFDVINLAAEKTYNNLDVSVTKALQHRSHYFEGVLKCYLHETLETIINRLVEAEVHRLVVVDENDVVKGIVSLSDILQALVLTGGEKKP
Sequence of PRKAA2 PRKAB1 PRKAG1 (human) (P54646 whole entry, looked up): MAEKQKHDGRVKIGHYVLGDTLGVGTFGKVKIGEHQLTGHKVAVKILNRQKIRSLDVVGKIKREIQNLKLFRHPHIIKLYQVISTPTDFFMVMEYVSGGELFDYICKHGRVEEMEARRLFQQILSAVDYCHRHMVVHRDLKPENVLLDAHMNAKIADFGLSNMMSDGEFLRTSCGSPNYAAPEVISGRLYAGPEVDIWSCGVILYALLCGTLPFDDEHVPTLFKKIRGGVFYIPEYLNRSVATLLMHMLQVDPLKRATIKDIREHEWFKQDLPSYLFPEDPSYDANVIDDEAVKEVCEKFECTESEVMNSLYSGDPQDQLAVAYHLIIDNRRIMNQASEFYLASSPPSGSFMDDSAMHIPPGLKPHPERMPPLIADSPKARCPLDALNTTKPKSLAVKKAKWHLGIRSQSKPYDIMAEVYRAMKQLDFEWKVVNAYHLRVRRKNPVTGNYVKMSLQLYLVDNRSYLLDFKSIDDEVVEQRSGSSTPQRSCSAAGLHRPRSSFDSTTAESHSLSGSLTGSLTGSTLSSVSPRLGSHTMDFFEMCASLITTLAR
Sequence of PRKAA2 PRKAB1 PRKAG1 (human) (Q9Y478 whole entry, looked up): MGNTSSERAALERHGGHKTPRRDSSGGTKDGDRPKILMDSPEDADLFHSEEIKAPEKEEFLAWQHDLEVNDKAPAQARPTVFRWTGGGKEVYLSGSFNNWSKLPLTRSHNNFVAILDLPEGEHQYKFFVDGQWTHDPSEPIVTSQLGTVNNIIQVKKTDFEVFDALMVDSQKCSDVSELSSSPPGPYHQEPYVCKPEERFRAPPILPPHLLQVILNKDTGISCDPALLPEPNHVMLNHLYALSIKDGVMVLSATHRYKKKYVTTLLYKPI

Sequence of TEK (human), Q02763 [Q939H/Q940H] (Q02763 whole entry Q939H/Q940H, looked up): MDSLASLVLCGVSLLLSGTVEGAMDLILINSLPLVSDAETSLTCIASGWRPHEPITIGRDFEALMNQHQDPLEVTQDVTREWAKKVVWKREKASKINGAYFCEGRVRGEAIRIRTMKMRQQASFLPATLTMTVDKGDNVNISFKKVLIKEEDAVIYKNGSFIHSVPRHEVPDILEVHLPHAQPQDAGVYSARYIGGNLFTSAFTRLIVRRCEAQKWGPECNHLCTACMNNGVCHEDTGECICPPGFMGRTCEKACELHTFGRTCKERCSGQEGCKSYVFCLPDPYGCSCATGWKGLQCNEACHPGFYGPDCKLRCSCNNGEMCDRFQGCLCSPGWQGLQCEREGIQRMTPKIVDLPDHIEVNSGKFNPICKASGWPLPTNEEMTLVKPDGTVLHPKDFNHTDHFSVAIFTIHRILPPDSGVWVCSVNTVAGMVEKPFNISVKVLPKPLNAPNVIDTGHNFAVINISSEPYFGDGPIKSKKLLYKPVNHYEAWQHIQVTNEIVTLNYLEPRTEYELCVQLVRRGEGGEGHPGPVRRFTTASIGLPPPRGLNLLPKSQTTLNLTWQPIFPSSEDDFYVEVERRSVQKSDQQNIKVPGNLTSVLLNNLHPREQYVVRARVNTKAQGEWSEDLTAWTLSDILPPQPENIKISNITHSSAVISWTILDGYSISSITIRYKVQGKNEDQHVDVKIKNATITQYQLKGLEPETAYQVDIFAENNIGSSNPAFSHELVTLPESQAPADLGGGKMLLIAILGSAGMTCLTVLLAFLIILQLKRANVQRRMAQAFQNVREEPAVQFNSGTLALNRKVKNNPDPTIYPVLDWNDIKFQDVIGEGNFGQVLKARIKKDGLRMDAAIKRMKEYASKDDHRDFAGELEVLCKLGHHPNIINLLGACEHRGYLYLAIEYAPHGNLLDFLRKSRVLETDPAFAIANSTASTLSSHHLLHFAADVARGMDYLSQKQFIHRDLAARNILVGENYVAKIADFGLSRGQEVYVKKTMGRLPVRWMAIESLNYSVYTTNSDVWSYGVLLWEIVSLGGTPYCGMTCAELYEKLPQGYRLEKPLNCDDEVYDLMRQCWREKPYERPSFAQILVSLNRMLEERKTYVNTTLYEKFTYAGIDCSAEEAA

residual activity ([1]; compound 10.0 µM): 17%
Compound: O=C(Nc1cccc(Nc2nccc(Nc3cccc(C(F)(F)F)c3)n2)c1)C1CC1

residual activity ([2]; compound 1.0 µM): 107% | residual activity ([2]; compound 10.0 µM): 98% | residual activity ([3]; compound 1.0 µM): 5% | residual activity ([3]; compound 10.0 µM): 1% | residual activity ([4]; compound 1.0 µM): 61% | residual activity ([4]; compound 10.0 µM): 24% | residual activity ([5]; compound 1.0 µM): 85% | residual activity ([5]; compound 10.0 µM): 28% | residual activity ([1]; compound 1.0 µM): 103% | residual activity ([1]; compound 10.0 µM): 41%
Compound: O=C1Nc2ccccc2/C1=C1\Nc2ccccc2\C1=N/O

residual activity (CDK2 CCNA2 (human); compound 1.0 µM): 129% | residual activity (CDK2 CCNA2 (human); compound 10.0 µM): 113% | residual activity (CDK2 CCNE1 (human); compound 1.0 µM): 105% | residual activity (CDK2 CCNE1 (human); compound 10.0 µM): 96% | residual activity (CDK3 CCNE1 (human); compound 1.0 µM): 90% | residual activity (CDK3 CCNE1 (human); compound 10.0 µM): 86% | residual activity (CDK7 CCNH MNAT1 (human); compound 1.0 µM): 88% | residual activity (CDK7 CCNH MNAT1 (human); compound 10.0 µM): 94% | residual activity (MTOR FKBP1A (human); compound 1.0 µM): -17% | residual activity (MTOR FKBP1A (human); compound 10.0 µM): 4% | residual activity ([6]; compound 1.0 µM): 93% | residual activity ([6]; compound 10.0 µM): 107%
Compound: CO[C@H]1CC2CC[C@@H](C)[C@@](O)(O2)C(=O)C(=O)N2CCCC[C@H]2C(=O)OC([C@H](C)C[C@@H]2CC[C@@H](O)[C@H](OC)C2)CC(=O)[C@H](C)/C=C(\C)[C@@H](O)[C@@H](OC)C(=O)[C@H](C)C[C@H](C)/C=C/C=C/C=C/1C (stereo partly drawn)
